pIC50: −log10 of the molar value. Where two headings read alike, the source gives them in different places.
How the values were obtained:
glucagon receptor (GCGR) = target: T1, glucagon receptor (GCGR) (Homo sapiens, UniProt P47871); assay: I125-glucagon binding assay (competition, GCGR membrane fractions)
T1 construct: expressed in transfected cells; host or cells: CHO-K1 cells overexpressing GCGR (membrane fractions)
In short: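 Competition of 0.0625 nM (final) I^125-glucagon for 30 min at 25° C, after 5 min compound preincubation, using 7.5 μg/well GCGR-overexpressing CHO-K1 membranes in 50 mM Tris pH 7.4, 0.5% BSA. Filtration onto PEI-coated GF/B, micro-beta counting, and non-linear regression gave IC50.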

[1] = target: T2, glucagon receptor (GCGR) overexpressed CHO-K1 cells or human primary hepatocytes (Homo sapiens, UniProt P47871); assay: Glucagon cAMP inhibition assay (Cisbio cAMP Dynamic 2 HTRF); type: cell-based
T2 construct: expressed in transfected cells; host or cells: GCGR overexpressed CHO-K1 cells or human primary hepatocytes (endogenous receptor)
In short: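 HTRF read-out of glucagon-induced cAMP, with IC50 from non-linear regression. Cells (GCGR CHO-K1 or human primary hepatocytes) in HBSS/0.1% BSA/800 nM IBMX took compound dilutions for 30 min (final DMSO 1%), then EC50-level glucagon for 30 min at room temperature, then a 60 min lysis/detection step.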

[2] = competition with I125-glucagon 0.0625 nM, membrane fractions of GCGR overexpressed CHO-K1 cells
[3] = inhibition of glucagon (EC50 concentration) induced cAMP production

T2 sequence (P47871 26-477): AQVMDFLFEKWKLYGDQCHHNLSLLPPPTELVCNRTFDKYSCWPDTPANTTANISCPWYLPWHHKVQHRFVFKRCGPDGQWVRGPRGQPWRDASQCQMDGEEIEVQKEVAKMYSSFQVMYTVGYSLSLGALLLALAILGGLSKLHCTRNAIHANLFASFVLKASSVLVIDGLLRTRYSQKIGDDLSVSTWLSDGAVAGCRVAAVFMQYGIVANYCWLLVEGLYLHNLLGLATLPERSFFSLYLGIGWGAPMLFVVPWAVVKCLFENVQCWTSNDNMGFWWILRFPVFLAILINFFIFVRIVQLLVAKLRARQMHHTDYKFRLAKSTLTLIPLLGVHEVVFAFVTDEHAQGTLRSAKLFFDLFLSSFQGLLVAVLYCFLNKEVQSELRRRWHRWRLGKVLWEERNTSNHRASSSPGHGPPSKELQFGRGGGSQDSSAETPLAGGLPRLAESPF
T1 sequence (P47871 26-477): as above

| Structure (SMILES) | pIC50 (glucagon receptor (GCGR); [2]) | IC50 cAMP [1, 3] | pIC50 (glucagon receptor (GCGR)) | IC50 cAMP ([1]; uM) | IC50 cAMP [1] |
| --- | --- | --- | --- | --- | --- |
| CCCC[C@@H](COc1ccc(-c2ccc(Cl)cc2Cl)nc1)Nc1ccc(C(=O)NCCC(=O)O)cc1 [Compound 10-7, (S)-3-(4-((1-((6-(2,4-dichlorophenyl)pyridin-3-yl)oxy)hexan-2-yl)amino)benzamido)propanoic Acid] | 6.50 | 0.732 µM |  |  |  |
| Cc1cc(OC[C@@H](Nc2ccc(C(=O)NCCC(=O)O)cc2)C(C)C)cc(C)c1-c1ccc(C(C)(C)C)cc1 [Compound 2-5, (S)-3-(4-((1-((4′-(tert-butyl)-2,6-dimethyl-[1,1′-biphenyl]-4-yl)oxy)-3-methylbutan-2-yl)amino)benzamido)propanoic Acid] | 6.46 | 0.352 µM |  |  |  |
| Cc1nn(-c2ncc(OC[C@H](CC(C)C)Nc3ccc(C(=O)NCCC(=O)O)cc3)cn2)cc1C(F)(F)F [Compound 12-1, (S)-3-(4-((4-methyl-1-((2-(3-methyl-4-(trifluoromethyl)-1H-pyrazol-1-yl)pyrimidin-5-yl)oxy)pentan-2-yl)amino)benzamido)propanoic Acid] | 6.17 | 14.17 µM |  |  |  |
| CC(C)[C@@H](COc1ccc(-c2ccc(N(C)C)cc2)cc1)Nc1ccc(C(=O)NCCC(=O)O)cc1 [Compound 1-12, (S)-3-(4-((1-((4′-(dimethylamino)-[1,1′-biphenyl]-4-yl)oxy)-3-methylbutan-2-yl)amino)benzamido)propanoic Acid] | 6.65 | 0.4143 µM |  |  |  |
| CC(C)[C@@H](COc1ccc(-c2nc3ccccc3s2)c(F)c1)Nc1ccc(C(=O)NCCC(=O)O)cn1 [Compound 9-5, (S)-3-(6-((1-(4-(benzo[d]thiazol-2-yl)-3-fluorophenoxy)-3-methylbutan-2-yl)amino)nicotinamido)propanoic Acid] | 6.22 | 2.408 µM |  |  |  |
| CCCC[C@@H](COc1ccc(-c2ccc(C(F)(F)F)cc2F)c(Cl)c1)Nc1ccc(C(=O)NCCC(=O)O)cc1 [Compound 3-22, (S)-3-(4-((1-((2-chloro-2′-fluoro-4′-(trifluoromethyl)-[1,1′-biphenyl]-4-yl)oxy)hexan-2-yl)amino)benzamido)propanoic Acid] | 7.08 | 0.054 µM |  |  |  |
| Cc1cc(OC[C@@H](Cc2ccccc2)Nc2ccc(C(=O)NCCC(=O)O)cc2)cc(C)c1-c1ccc(OC(F)(F)F)cc1 [Compound 2-2] | 6.42 | 0.4748 µM |  |  |  |
| CC(C)[C@@H](COc1ccc(-c2nc3ccccc3s2)c(F)c1)Nc1ccc(C(=O)NCCC(=O)O)cc1 [Compound 8-25, (S)-3-(4-((1-(4-(benzo[d]thiazol-2-yl)-3-fluorophenoxy)-3-methylbutan-2-yl)amino)benzamido)propanoic Acid] | 7.02 | 0.653 µM |  |  |  |
| CC[C@H](C)[C@@H](COc1cc(C)c(-c2ccc(C(C)(C)C)cc2)c(C)c1)Nc1ccc(C(=O)NCCC(=O)O)cc1 [Compound 2-6, 3-(4-(((2S,3S)-1-((4′-(tert-butyl)-2,6-dimethyl-[1,1′-biphenyl]-4-yl)oxy)-3-methylpentan-2-yl)amino)benzamido)propanoic Acid] | 7.17 | 0.448 µM |  |  |  |
| CC(C)[C@@H](COc1ccc(-c2cc(Cl)cc(Cl)c2)c(F)c1)Nc1ccc(C(=O)NCCC(=O)O)cc1 [Compound 8-12, (S)-3-(4-((1-((3′,5′-dichloro-2-fluoro-[1,1′-biphenyl]-4-yl)oxy)-3-methylbutan-2-yl)amino)benzamido)propanoic Acid] | 6.64 | 1.243 µM |  |  |  |
| CC[C@H](C)[C@@H](COc1ccc(-c2ccc(Cl)cc2Cl)cc1)Nc1ccc(C(=O)NC[C@@H](O)C(=O)O)cc1 [Compound 1-14, (R)-3-(4-(((2S,3S)-1-((2′,4′-dichloro-[1,1′-biphenyl]-4-yl)oxy)-3-methylpentan-2-yl)amino)benzamido)-2-hydroxypropanoic Acid] | 6.95 | 3.553 µM |  |  |  |
| CC(C)(C)[C@@H](COc1ccc(-c2ccc(Cl)cc2Cl)cc1)Nc1ccc(C(=O)NCCC(=O)O)cc1 [Compound 1-36, (S)-3-(4-((1-((2′,4′-dichloro-[1,1′-biphenyl]-4-yl)oxy)-3,3-dimethylbutan-2-yl)amino)benzamido)propanoic Acid] | 6.85 | 0.243 µM |  |  |  |
| CC[C@H](C)[C@@H](COc1cc(Cl)c(-c2ccc(C(F)(F)F)cc2Cl)cc1Cl)Nc1ccc(C(=O)NCCC(=O)O)cc1 [Compound 3-20, 3-(4-(((2S,3S)-3-methyl-1-((2,2′,5-trichloro-4′-(trifluoromethyl)-[1,1′-biphenyl]-4-yl)oxy)pentan-2-yl)amino)benzamido)propanoic Acid] | 7.14 | 0.044 µM |  |  |  |

Further lines, results first:

| pIC50 (glucagon receptor (GCGR); [2]) | IC50 cAMP [1, 3] | pIC50 (glucagon receptor (GCGR)) | IC50 cAMP ([1]; uM) | IC50 cAMP [1] | Structure (SMILES) |
| --- | --- | --- | --- | --- | --- |
|  |  | 5.99 | >10 µM |  | CC[C@H](C)[C@H](Nc1ccc(C(=O)NCCC(=O)O)cc1)C(=O)Nc1ccc2cc(OC)ccc2c1 [Compound 24-8, 3-(4-(((2S,3S)-1-((6-methoxynaphthalen-2-yl)amino)-3-methyl-1-oxopentan-2-yl)amino)benzamido)propanoic Acid] |
|  |  | 6.77 |  | 9.529 µM | CCOC(=O)CCNC(=O)c1ccc(N[C@H](Cc2ccc(-c3cc4ccccc4o3)cc2)C(=O)Nc2cc(F)cc(F)c2)cc1 [Compound 24-23, Ethyl (R)-3-(4-((3-(4-(benzofuran-2-yl)phenyl)-1-((3,5-difluorophenyl)amino)-1-oxopropan-2-yl)amino)benzamido)propanoate] |
|  |  | 7.21 |  | 0.075 µM | CC[C@H](C)[C@@H](COc1ccc(-c2ccc(C(F)(F)F)cc2Cl)c(C)n1)Nc1ccc(C(=O)NCCC(=O)O)cc1 [Compound 18-3, 3-(4-(((2S,3S)-1-((5-(2-chloro-4-(trifluoromethyl)phenyl)-6-methylpyridin-2-yl)oxy)-3-methylpentan-2-yl)amino)benzamido)propanoic Acid] |
| 7.27 | 0.219 µM |  |  |  | CCCC[C@@H](COc1ccc(-c2ccc(Cl)cc2Cl)c(OC)c1)Nc1ccc(C(=O)NCCC(=O)O)cc1 [Compound 13-9, (S)-3-(4-((1-((2′,4′-dichloro-2-methoxy-[1,1′-biphenyl]-4-yl)oxy)hexan-2-yl)amino)benzamido)propanoic Acid] |
| 5.78 | >30 µM |  |  |  | CC(C)[C@@H](COc1cnc(-c2ccc(Cl)cc2Cl)nc1)Nc1ccc(C(=O)NCCC(=O)O)cc1 [Compound 12-6, (S)-3-(4-((1-((2-(2,4-dichlorophenyl)pyrimidin-5-yl)oxy)-3-methylbutan-2-yl)amino)benzamido)propanoic Acid] |
|  |  | 6.52 |  | 0.2939 µM | CCCC[C@@H](COc1ccc(-c2ccc(Cl)cc2Cl)cn1)Nc1ccc(C(=O)NCCC(=O)O)cc1 [Compound 15-24, (S)-3-(4-((1-((5-(2,4-dichlorophenyl)pyridin-2-yl)oxy)hexan-2-yl)amino)benzamido)propanoic Acid] |
|  |  | 7.34 |  | 0.8313 µM | CC(C)(C)c1ccc(-c2ccc(C[C@@H](Nc3ccc(C(=O)NCCC(=O)O)cc3)C(=O)Nc3ccc(OC(F)(F)F)cc3)cc2)cc1 [Compound 24-26, (R)-3-(4-((3-(4′-(tat-butyl)-[1,1′-biphenyl]-4-yl)-1-oxo-1-((4-(trifluoromethoxy)phenyl)amino)propan-2-yl)amino)benzamido)propanoic Acid] |
|  |  | 6.51 |  | 0.5986 µM | CC(C)C[C@@H](Nc1ccc(C(=O)NCCC(=O)O)cc1)C(=O)Nc1ccc(-c2cc3ccccc3o2)cc1 [Compound 24-2, (R)-3-(4-((1-((4-(benzofuran-2-yl)phenyl)amino)-4-methyl-1-oxopentan-2-yl)amino)benzamido)propanoic Acid] |
|  |  | 7.13 |  | 0.08 µM | Cc1nc(OC[C@H](CC(C)C)Nc2ccc(C(=O)NCCC(=O)O)cc2)ccc1-c1ccc(C(F)(F)F)cc1Cl [Compound 18-7, (S)-3-(4-((1-((5-(2-chloro-4-(trifluoromethyl)phenyl)-6-methylpyridin-2-)oxy)-4-methylpentan-2-yl)amino)benzamido)propanoic Acid] |
|  |  | 5.24 |  | 30.78 µM | CC(C)C[C@@H](Nc1ccc(C(=O)NCCC(=O)O)cc1)C(=O)Nc1ccc(C(F)(F)F)cc1 [Compound 24-10, (R)-3-(4-((4-methyl-1-oxo-1-((4-(trifluoromethyl)phenyl)amino)pentan-2-yl)amino)benzamido)propanoic Acid] |
|  |  | 5.79 |  | 3.488 µM | C[C@@H](Cc1ccc(-c2ccc(C(C)(C)C)cc2)cc1)Nc1ccc(C(=O)NCCC(=O)O)cc1 [Compound 19-4, (S)-3-(4-((1-(4′-(tert-butyl)-[1,1′-biphenyl]-4-yl)propan-2-yl)amino)benzamido)propanoic Acid] |
|  |  | 6.64 |  | 0.2066 µM | CCCC[C@@H](COc1ccc(-c2ccc(C(F)(F)F)cc2F)cn1)Nc1ccc(C(=O)NCCC(=O)O)cc1 [Compound 15-26, (S)-3-(4-((1-((5-(2-fluoro-4-(trifluoromethyl)phenyl)pyridin-2-yl)oxy)hexan-2-yl)amino)benzamido)propanoic Acid] |
|  |  | < 4.52 |  | >30 µM | CC(C)[C@@H](COc1nnc(-c2ccc(OC(F)(F)F)cc2)o1)Nc1ccc(C(=O)NCCC(=O)O)cc1 [Compound 22-15, (S)-3-(4-((3-methyl-1-((5-(4-(trifluoromethoxy)phenyl)-1,3,4-oxadiazol-2-yl)oxy)butan-2-yl)amino)benzamido)propanoic Acid] |
